According to publication PMC6273789, “Asperpyrone-Type Bis-Naphtho-γ-Pyrones with COX-2–Inhibitory Activities from Marine-Derived Fungus Aspergillus niger” (Molecules, 2016):

Target: T1, COX-2 (Ovis aries, UniProt P79208)
T1 construct: gene PTGS2
T1 sequence (P79208 17-603): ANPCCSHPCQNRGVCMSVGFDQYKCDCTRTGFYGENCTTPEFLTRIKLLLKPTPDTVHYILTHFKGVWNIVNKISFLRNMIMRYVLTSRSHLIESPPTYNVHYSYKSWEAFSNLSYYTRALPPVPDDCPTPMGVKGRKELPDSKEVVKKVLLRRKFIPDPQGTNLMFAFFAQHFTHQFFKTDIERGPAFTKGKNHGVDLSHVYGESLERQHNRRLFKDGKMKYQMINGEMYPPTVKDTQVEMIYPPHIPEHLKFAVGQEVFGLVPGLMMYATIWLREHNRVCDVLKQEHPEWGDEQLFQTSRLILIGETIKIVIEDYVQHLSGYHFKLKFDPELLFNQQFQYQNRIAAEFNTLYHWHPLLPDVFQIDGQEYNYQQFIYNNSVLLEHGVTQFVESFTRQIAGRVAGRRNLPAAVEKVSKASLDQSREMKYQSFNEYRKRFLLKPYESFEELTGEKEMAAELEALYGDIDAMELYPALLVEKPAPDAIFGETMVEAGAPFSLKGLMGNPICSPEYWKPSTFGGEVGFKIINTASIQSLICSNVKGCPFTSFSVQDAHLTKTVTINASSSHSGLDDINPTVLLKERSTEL
Assay: COX (ovine) inhibitor screening kit
Type: biochemical

Compared with `COc1cc(OC)c2c(O)c3c(=O)cc(C)oc3c(-c3c(O)cc4cc5c(c(O)c4c3OC)C(=O)CC(C)(O)O5)c2c1` (stereo not drawn) [compound 3, aurasperone F], `COc1cc(OC)c2c(O)c3c(c(-c4c(O)cc5cc6c(c(O)c5c4OC)C(=O)CC(C)(O)O6)c2c1)OC(C)(O)CC3=O` (stereo not drawn) [compound 6, aurasperone C] is 2.6-fold lower in IC50: 11.1 µM for the first, 4.2 µM for the second. The second is the more potent here.

Compound `COc1cc(OC)c2c(O)c3c(=O)cc(C)oc3c(-c3c(O)cc4cc(O)c5c(=O)cc(C)oc5c4c3OC)c2c1` [compound 8, asperpyrone A] has an IC50 of 6.4 µM.
